The data set in a line: Solubility in water. Conditions: 20° C., 100 g of water.

Take `COCCOC` [ethylene glycol dimethyl ether]: the miscibility with water result is “completely miscible with water”.

The record behind these values is patent US20250304811A1, “Ink Jet Ink Composition And Recording Method” (SEIKO EPSON CORPORATION, priority 2024, published 2025).
